Columns and labels:
Type in all cases: cell-based, human
[1] = test system: HeLa; assay: Hoechst 33342 nuclear staining (Table 3); parameters: key: 0 relating to no activity; 1 relating to weak activity comprising less than 50% of the cells; score 2 relating to strong activity comprising more than 50% of the cells
In short: (§1)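 Adherent cells (3-5×10^3, pre-spread 24 h) or suspension cells (8-10×10^3) treated with compounds at 10, 3, 1 and 0.3 µM for 24 or 48 h, then Hoechst 33342 stained for 30 min. Apoptotic nuclear morphology scored by fluorescence microscopy: 0 none, 1 weak (<50% cells), 2 strong (>50% cells).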

[2] = test system: Jurkat; assay: Hoechst 33342 nuclear staining (Table 3); parameters: key: 0 relating to no activity; 1 relating to weak activity comprising less than 50% of the cells; score 2 relating to strong activity comprising more than 50% of the cells
In short: as §1

[3] = test system: K562; assay: Hoechst 33342 nuclear staining (Table 3); parameters: key: 0 relating to no activity; 1 relating to weak activity comprising less than 50% of the cells; score 2 relating to strong activity comprising more than 50% of the cells
In short: as §1

[4] = test system: KB; assay: Hoechst 33342 nuclear staining (Table 3); parameters: key: 0 relating to no activity; 1 relating to weak activity comprising less than 50% of the cells; score 2 relating to strong activity comprising more than 50% of the cells
In short: as §1

[5] = test system: HeLa; assay: AnnexinV/7-AAD staining; conditions: 10 µM, 24 h treatment
In short: (§2)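 Cells treated with compound at 10 µM final for 24 h, then stained with AnnexinV-GST/anti-GST Alexa 488 and 7-AAD and analysed by flow cytometry. Percent positive cells scored as 0 (<10%), 1 (10–50%) or 2 (>50%).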

[6] = test system: Jurkat; assay: AnnexinV/7-AAD staining; conditions: 10 µM, 24 h treatment
In short: as §2

`CC1(C)Cc2ccccc2-c2c(Br)c3nc4ccccc4nc3n21` [No. 2, 13-Bromo-6,6-dimethyl-5,6-dihydro-6a,7,12-triaza-dibenzo[a,h]fluorene] was tested, and the “Hoechst 33342 nuclear staining” value ([1]; 24h, conc 0.3 (µM)) was 0, the “Hoechst 33342 nuclear staining” value ([1]; 24h, conc 1 (µM)) was 0 and the “Hoechst 33342 nuclear staining” value ([1]; 24h, conc 3 (µM)) was 0. For the same molecule, the “Hoechst 33342 nuclear staining” value ([1]; 24h, conc 10 (µM)) was 0, the “Hoechst 33342 nuclear staining” value ([1]; 48h, conc 0.3 (µM)) was 0 and the “Hoechst 33342 nuclear staining” value ([1]; 48h, conc 1 (µM)) was 1 (1 relating to weak activity comprising less than 50% of the cells). For the same molecule, the “Hoechst 33342 nuclear staining” value ([1]; 48h, conc 3 (µM)) was 2 (score 2 relating to strong activity comprising more than 50% of the cells), the “Hoechst 33342 nuclear staining” value ([1]; 48h, conc 10 (µM)) was 2 (score 2 relating to strong activity comprising more than 50% of the cells) and the “Hoechst 33342 nuclear staining” value ([2]; 24h, conc 0.3 (µM)) was 1 (1 relating to weak activity comprising less than 50% of the cells). The “Hoechst 33342 nuclear staining” value ([2]; 24h, conc 1 (µM)) was 1 (1 relating to weak activity comprising less than 50% of the cells), the “Hoechst 33342 nuclear staining” value ([2]; 24h, conc 3 (µM)) was 2 (score 2 relating to strong activity comprising more than 50% of the cells) and the “Hoechst 33342 nuclear staining” value ([2]; 24h, conc 10 (µM)) was 2 (score 2 relating to strong activity comprising more than 50% of the cells). The “Hoechst 33342 nuclear staining” value ([2]; 48h, conc 0.3 (µM)) was 2 (score 2 relating to strong activity comprising more than 50% of the cells), the “Hoechst 33342 nuclear staining” value ([2]; 48h, conc 1 (µM)) was 2 (score 2 relating to strong activity comprising more than 50% of the cells) and the “Hoechst 33342 nuclear staining” value ([2]; 48h, conc 3 (µM)) was 2 (score 2 relating to strong activity comprising more than 50% of the cells). The “Hoechst 33342 nuclear staining” value ([2]; 48h, conc 10 (µM)) was 2 (score 2 relating to strong activity comprising more than 50% of the cells), the “Hoechst 33342 nuclear staining” value ([3]; K562, 24h, conc 0.3 (µM)) was 0 and the “Hoechst 33342 nuclear staining” value ([3]; K562, 24h, conc 1 (µM)) was 0. For the same molecule, the “Hoechst 33342 nuclear staining” value ([3]; K562, 24h, conc 3 (µM)) was 1 (1 relating to weak activity comprising less than 50% of the cells), the “Hoechst 33342 nuclear staining” value ([3]; K562, 48h, conc 0.3 (µM)) was 0 and the “Hoechst 33342 nuclear staining” value ([3]; K562, 48h, conc 1 (µM)) was 0. For the same molecule, the “Hoechst 33342 nuclear staining” value ([3]; K562, 48h, conc 3 (µM)) was 2 (score 2 relating to strong activity comprising more than 50% of the cells), the “Hoechst 33342 nuclear staining” value ([3]; K562, 48h, conc 10 (µM)) was 2 (score 2 relating to strong activity comprising more than 50% of the cells) and the “Hoechst 33342 nuclear staining” value ([4]; 24h, conc 0.3 (µM)) was 0. For the same molecule, the “Hoechst 33342 nuclear staining” value ([4]; 24h, conc 1 (µM)) was 0, the “Hoechst 33342 nuclear staining” value ([4]; 24h, conc 3 (µM)) was 0 and the “Hoechst 33342 nuclear staining” value ([4]; 24h, conc 10 (µM)) was 0. The “Hoechst 33342 nuclear staining” value ([4]; 48h, conc 0.3 (µM)) was 0, the “Hoechst 33342 nuclear staining” value ([4]; 48h, conc 1 (µM)) was 0 and the “Hoechst 33342 nuclear staining” value ([4]; 48h, conc 3 (µM)) was 0. The “Hoechst 33342 nuclear staining” value ([4]; 48h, conc 10 (µM)) was 0, the “percentage of positively stained cells (AnnexinV/7-AAD staining)” value [5] was 1 (score 1 relates to more than 10% but less than 50%) and the “percentage of positively stained cells (AnnexinV/7-AAD staining)” value [6] was 2 (score 2 relates to more than 50% positivity).

Reference: patent EP1433789A1, “Pyrrolopyrazines and their use as selective apoptosis inducers” (Aponetics AG, priority 2002, dated 2004)
